Measured values published in US20240122182A1, “PESTICIDALLY ACTIVE HETEROCYCLIC DERIVATIVES WITH SULFUR CONTAINING SUBSTITUENTS” (SYNGENTA CROP PROTECTION AG, priority 2021, published 2024).

Assays:
Assay type in all cases: in vivo
[1] = system: Myzus persicae (Green Peach Aphid); assay: Activity against Myzus persicae (green peach aphid), feeding/contact activity; conditions: 144 h, application rate of 200 ppm, mixed ages, 6 days after infestation
Description: Sunflower leaf discs were placed onto agar in a 24-well microtiter plate and sprayed with aqueous test solutions prepared from 10′000 ppm DMSO stock solutions. After drying, the leaf discs were infested with an aphid population of mixed ages. The samples were assessed for mortality 6 days after infestation.

[2] = system: Diabrotica Balteata (Corn Root Worm); assay: Activity against Diabrotica balteata (corn root worm), maize sprouts sprayed; conditions: 96 h, application rate of 200 ppm, L2 larvae, 4 days after infestation, read-out: effect in at least one of the two categories (mortality or growth inhibition)
Description: Maize sprouts placed onto an agar layer in 24-well microtiter plates were treated with aqueous test solutions prepared from 10′000 ppm DMSO stock solutions by spraying. After drying, the plates were infested with L2 larvae (6 to 10 per well). The samples were assessed for mortality and growth inhibition in comparison to untreated samples 4 days after infestation.

[3] = system: Plutella xylostella (Diamond Back Moth); assay: Activity against Plutella xylostella (diamond back moth), artificial diet; conditions: 192 h, application rate of 200 ppm, eggs, 8 days after infestation, read-out: effect in at least one of the two categories (mortality or growth inhibition)
Description: 24-well microtiter plates with artificial diet were treated with aqueous test solutions prepared from 10′000 ppm DMSO stock solutions by pipetting. After drying, Plutella eggs were pipetted through a plastic stencil onto a gel blotting paper and the plate was closed with it. The samples were assessed for mortality and growth inhibition in comparison to untreated samples 8 days after infestation.

[4] = system: Spodoptera littoralis (Egyptian Cotton Leaf Worm); assay: Activity against Spodoptera littoralis (Egyptian cotton leaf worm), cotton leaf discs sprayed; conditions: foliar, 72 h, application rate of 200 ppm, L1 larvae, 3 days after infestation, read-out: control (mortality, anti-feeding effect, growth inhibition)
Description: Cotton leaf discs were placed onto agar in 24-well microtiter plates and sprayed with aqueous test solutions prepared from 10′000 ppm DMSO stock solutions. After drying the leaf discs were infested with five L1 larvae. The samples were assessed for mortality, anti-feeding effect, and growth inhibition in comparison to untreated samples 3 days after infestation. Control of Spodoptera littoralis by a test sample is given when at least one of the categories mortality, anti-feedant effect, and growth inhibition is higher than the untreated sample.

[5] = system: Carpocapsa (Cydia) Pomonella (Codling Moth); assay: Activity against Carpocapsa (Cydia) pomonella (codling moth), larvicide, feeding/contact; conditions: 336 h, application rate of 12.5 ppm, L1 larvae, 14 days after infestation, read-out: effect in at least one of the two categories (mortality or growth inhibition)
Description: Diet cubes coated with paraffin were sprayed with diluted test solutions in an application chamber. After drying off the treated cubes (10 replicates) were infested with 1 L1 larvae. Samples were incubated at 26-27° C. and checked 14 days after infestation for mortality and growth inhibition. The following compounds gave an effect of at least 80% in at least one of the two categories (mortality or growth inhibition) at an application rate of 12.5 ppm: P1, P2, P3, P5, P9, P10, P11, P12, P14, P17, P19, P20, P21, P23, P24, P30, P31.

[6] = system: Euschistus heros (Neotropical Brown Stink Bug); assay: Activity against Euschistus heros (neotropical brown stink bug), soybean leaves sprayed; conditions: 120 h, application rate of 200 ppm, N2 nymphs, 5 days after infestation, read-out: effect in at least one of the two categories (mortality or growth inhibition)
Description: Soybean leaves on agar in 24-well microtiter plates were sprayed with aqueous test solutions prepared from 10′000 ppm DMSO stock solutions. After drying the leaves were infested with N2 nymphs. The samples were assessed for mortality and growth inhibition in comparison to untreated samples 5 days after infestation.

[7] = system: Chilo suppressalis (Striped Rice Stemborer); assay: Activity against Chilo suppressalis (striped rice stemborer), artificial diet; conditions: 144 h, application rate of 200 ppm, L2 larvae, 6 days after infestation, read-out: control (mortality, anti-feeding effect, growth inhibition)
Description: 24-well microtiter plates with artificial diet were treated with aqueous test solutions prepared from 10′000 ppm DMSO stock solutions by pipetting. After drying, the plates were infested with L2 larvae (6-8 per well). The samples were assessed for mortality, anti-feeding effect, and growth inhibition in comparison to untreated samples 6 days after infestation. Control of Chilo suppressalis by a test sample is given when at least one of the categories mortality, anti-feedant effect, and growth inhibition is higher than the untreated sample.

CCSc1cc(N(C)C(C)=O)cnc1-c1cc2c(cn1)N(CC(F)(F)C(F)(F)F)C(=O)CC2 [P7, N-[5-ethylsulfanyl-6-[2-oxo-1-(2,2,3,3,3-pentafluoropropyl)-3,4-dihydro-1,7-naphthyridin-6-yl]-3-pyridyl]-N-methyl-acetamide]
≥ 80%: mortality at 200 ppm [1]

CCS(=O)(=O)c1cc(Oc2ccccn2)cnc1-c1cc2c(cn1)N(CC(F)(F)C(F)(F)F)C(=O)CC2 [P21, 6-[3-ethylsulfonyl-5-(2-pyridyloxy)-2-pyridyl]-1-(2,2,3,3,3-pentafluoropropyl)-3,4-dihydro-1,7-naphthyridin-2-one]
≥ 80%: percent effect (mortality or growth inhibition) at 200 ppm [2] | percent effect (mortality or growth inhibition) at 200 ppm [3] | mortality at 200 ppm [4] | percent effect (mortality or growth inhibition) at 12.5 ppm [5] | percent effect (mortality or growth inhibition) at 200 ppm [6] | mortality at 200 ppm [7]

CCSc1cc(C2(C#N)CC2)cnc1-c1cc2c(cn1)N(CC(F)(F)F)C(=O)CC2 [P6, 1-[5-ethylsulfanyl-6-[2-oxo-1-(2,2,2-trifluoroethyl)-3,4-dihydro-1,7-naphthyridin-6-yl]-3-pyridyl]cyclopropanecarbonitrile]
≥ 80%: percent effect (mortality or growth inhibition) at 200 ppm [2] | percent effect (mortality or growth inhibition) at 200 ppm [3] | mortality at 200 ppm [4] | percent effect (mortality or growth inhibition) at 200 ppm [6] | mortality at 200 ppm [7]

CCS(=O)(=O)c1ccc(-n2cncn2)nc1-c1cc2c(cn1)N(CC(F)(F)C(F)(F)F)C(=O)OC2 [P16, 6-[3-ethylsulfonyl-6-(1,2,4-triazol-1-yl)-2-pyridyl]-1-(2,2,3,3,3-pentafluoropropyl)-4H-pyrido[3,4-d][1,3]oxazin-2-one]
≥ 80%: percent effect (mortality or growth inhibition) at 200 ppm [2] | percent effect (mortality or growth inhibition) at 200 ppm [3] | mortality at 200 ppm [4] | mortality at 200 ppm [1] | mortality at 200 ppm [7]

CCSc1cc(C2(C#N)CC2)cnc1-c1cc2c(cn1)N(CC(F)(F)F)C(=O)OC2 [P35, 1-[5-ethylsulfanyl-6-[2-oxo-1-(2,2,2-trifluoroethyl)-4H-pyrido[3,4-d][1,3]oxazin-6-yl]-3-pyridyl]cyclopropanecarbonitrile]
≥ 80%: percent effect (mortality or growth inhibition) at 200 ppm [2] | percent effect (mortality or growth inhibition) at 200 ppm [3]

CCS(=O)(=O)c1ccc(-n2cncn2)nc1-c1cc2c(cn1)N(CC(F)(F)C(F)(F)F)C(=O)CC2 [P13, 6-[3-ethylsulfonyl-6-(1,2,4-triazol-1-yl)-2-pyridyl]-1-(2,2,3,3,3-pentafluoropropyl)-3,4-dihydro-1,7-naphthyridin-2-one]
≥ 80%: percent effect (mortality or growth inhibition) at 200 ppm [2] | percent effect (mortality or growth inhibition) at 200 ppm [3] | mortality at 200 ppm [4] | mortality at 200 ppm [1] | mortality at 200 ppm [7]

CCSc1cc(OCC(C)(F)F)cnc1-c1cc2c(cn1)N(CC(F)(F)C(F)(F)F)C(=O)OC2 [P27, 6-[5-(2,2-difluoropropoxy)-3-ethylsulfanyl-2-pyridyl]-1-(2,2,3,3,3-pentafluoropropyl)-4H-pyrido[3,4-d][1,3]oxazin-2-one]
≥ 80%: percent effect (mortality or growth inhibition) at 200 ppm [2] | percent effect (mortality or growth inhibition) at 200 ppm [3] | mortality at 200 ppm [4] | percent effect (mortality or growth inhibition) at 200 ppm [6] | mortality at 200 ppm [7]

CC[S+]([O-])c1cc(OCC(C)(F)F)cnc1-c1cc2c(cn1)N(CC(F)(F)C(F)(F)F)C(=O)OC2 (centres unmarked) [P32, 6-[5-(2,2-difluoropropoxy)-3-ethylsulfinyl-2-pyridyl]-1-(2,2,3,3,3-pentafluoropropyl)-4H-pyrido[3,4-d][1,3]oxazin-2-one]
≥ 80%: percent effect (mortality or growth inhibition) at 200 ppm [2] | percent effect (mortality or growth inhibition) at 200 ppm [3] | mortality at 200 ppm [4]

CCSc1cc(NC)cnc1-c1cc2c(cn1)N(CC(F)(F)C(F)(F)F)C(=O)OC2 [P28, 6-[3-ethylsulfanyl-5-(methylamino)-2-pyridyl]-1-(2,2,3,3,3-pentafluoropropyl)-4H-pyrido[3,4-d][1,3]oxazin-2-one]
≥ 80%: percent effect (mortality or growth inhibition) at 200 ppm [3]

CCSc1cc(C(C)(C)C#N)cnc1-c1cc2c(cn1)N(CC(F)(F)C(F)(F)F)C(=O)OC2 [P33, 2-[5-ethylsulfanyl-6-[2-oxo-1-(2,2,3,3,3-pentafluoropropyl)-4H-pyrido[3,4-d][1,3]oxazin-6-yl]-3-pyridyl]-2-methyl-propanenitrile]
≥ 80%: percent effect (mortality or growth inhibition) at 200 ppm [2] | percent effect (mortality or growth inhibition) at 200 ppm [6] | mortality at 200 ppm [7]

CCSc1cc(C(F)(F)F)cnc1-c1cc2c(cn1)N(CC(F)(F)C(F)(F)F)C(=O)OC2 [P26, 6-[3-ethylsulfanyl-5-(trifluoromethyl)-2-pyridyl]-1-(2,2,3,3,3-pentafluoropropyl)-4H-pyrido[3,4-d][1,3]oxazin-2-one]
≥ 80%: percent effect (mortality or growth inhibition) at 200 ppm [2] | percent effect (mortality or growth inhibition) at 200 ppm [3] | mortality at 200 ppm [7]

CCS(=O)(=O)c1cc(-n2ccc(Cl)n2)cnc1-c1cc2c(cn1)N(CC(F)(F)C(F)(F)F)C(=O)CC2 [P5, 6-[5-(3-chloropyrazol-1-yl)-3-ethylsulfonyl-2-pyridyl]-1-(2,2,3,3,3-pentafluoropropyl)-3,4-dihydro-1,7-naphthyridin-2-one]
≥ 80%: percent effect (mortality or growth inhibition) at 200 ppm [2] | percent effect (mortality or growth inhibition) at 200 ppm [3] | mortality at 200 ppm [4] | percent effect (mortality or growth inhibition) at 12.5 ppm [5] | percent effect (mortality or growth inhibition) at 200 ppm [6] | mortality at 200 ppm [7]

CCSc1cc(N(C)C(C)=O)cnc1-c1cc2c(cn1)N(CC(F)(F)C(F)(F)F)C(=O)OC2 [P29, N-[5-ethylsulfanyl-6-[2-oxo-1-(2,2,3,3,3-pentafluoropropyl)-4H-pyrido[3,4-d][1,3]oxazin-6-yl]-3-pyridyl]-N-methyl-acetamide]
≥ 80%: percent effect (mortality or growth inhibition) at 200 ppm [3] | mortality at 200 ppm [4] | mortality at 200 ppm [1] | mortality at 200 ppm [7]

CCSc1cc(OCC(C)(F)F)cnc1-c1cc2c(cn1)N(CC(F)(F)C(F)(F)F)C(=O)CC2 [P25, 6-[5-(2,2-difluoropropoxy)-3-ethylsulfanyl-2-pyridyl]-1-(2,2,3,3,3-pentafluoropropyl)-3,4-dihydro-1,7-naphthyridin-2-one]
≥ 80%: percent effect (mortality or growth inhibition) at 200 ppm [2] | percent effect (mortality or growth inhibition) at 200 ppm [3] | mortality at 200 ppm [4] | mortality at 200 ppm [7]
